What was measured:
Assay in all cases: Test C pre/postemergence
Assay type in all cases: in vivo
[1] = system: Surinam grass (Brachiaria decumbens); settings: Postemergence; for Plant response rating, Surinam Grass: scale 0 to 100
How it was run: (§1)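 Rating scale 0–100: 0 means no effect, 100 complete control; taken visually 12 to 14 days post-treatment versus controls. Pre- and postemergence greenhouse applications, postemergence at 1- to 4-leaf stage, non-phytotoxic solvent with surfactant as carrier.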

[2] = system: johnsongrass (Sorghum halepense); settings: Postemergence; for Plant response rating, Johnsongrass: scale 0 to 100
How it was run: as §1

[3] = system: cocklebur (Xanthium strumarium); settings: Postemergence; for Plant response rating, Cocklebur: scale 0 to 100
How it was run: as §1

corn (Zea mays) = settings: Postemergence; for Plant response rating, Corn: scale 0 to 100
How it was run: as §1

[4] = system: woolly cupgrass (Eriochloa villosa); settings: Postemergence; for Plant response rating, Cupgrass, Woolly: scale 0 to 100
How it was run: as §1

[5] = system: pigweed (Amaranthus retroflexus); settings: Postemergence; for Plant response rating, Pigweed: scale 0 to 100
How it was run: as §1

kochia (Kochia scoparia) = settings: Postemergence; for Plant response rating, Kochia: scale 0 to 100
How it was run: as §1

[6] = system: common ragweed (Ambrosia elatior); settings: Postemergence; for Plant response rating, Ragweed: scale 0 to 100
How it was run: as §1

[7] = system: bermudagrass (Cynodon dactylon); settings: Postemergence; for Plant response rating, Bermudagrass: scale 0 to 100
How it was run: as §1

[8] = system: morningglory (Ipomoea coccinea); settings: Postemergence; for Plant response rating, Morningglory: scale 0 to 100
How it was run: as §1

[9] = 62 g ai/ha, scale 0 to 100 (0 no effect, 100 complete control)
[10] = 125 g ai/ha, scale 0 to 100 (0 no effect, 100 complete control)

Question: Which results are given for `CCOC(=O)c1nc(-c2ccc(Br)cc2)nc(N)c1Cl` [Compound 94, ethyl 6-amino-2-(4-bromophenyl)-5-chloro-4-pyrimidinecarboxylate]?
Answer: pest or weed control at 125 g/ha ([1]; Urochloa decumbens, post-emergence, 125 g ai/ha, scale 0 to 100 (0 no effect, 100 complete control), read-out: Surinam Grass plant response rating): 100%; pest or weed control at 16 g/ha ([1]; Urochloa decumbens, post-emergence, 16 g ai/ha, read-out: Plant response rating (scale of 0 to 100), Surinam Grass): 50%; pest or weed control at 31 g/ha ([1]; Urochloa decumbens, post-emergence, 31 g ai/ha, read-out: Plant response rating (scale of 0 to 100), Surinam Grass): 60%; pest or weed control at 62 g/ha ([1]; Urochloa decumbens, post-emergence, 62 g ai/ha, read-out: Plant response rating (scale of 0 to 100), Surinam Grass): 90%; pest or weed control at 16 g/ha ([2]; Sorghum halepense, post-emergence, 16 g ai/ha, read-out: Plant response rating (scale of 0 to 100), Johnsongrass): 55%; pest or weed control at 31 g/ha ([2]; Sorghum halepense, post-emergence, 31 g ai/ha, read-out: Plant response rating (scale of 0 to 100), Johnsongrass): 60%; pest or weed control at 62 g/ha ([2]; Sorghum halepense, post-emergence, 62 g ai/ha, read-out: Plant response rating (scale of 0 to 100), Johnsongrass): 75%; pest or weed control at 125 g/ha ([2]; Sorghum halepense, post-emergence, 125 g ai/ha, scale 0 to 100 (0 no effect, 100 complete control), read-out: Johnsongrass plant response rating): 90%; pest or weed control at 16 g/ha ([3]; Xanthium strumarium, post-emergence, 16 g ai/ha, read-out: Plant response rating (scale of 0 to 100), Cocklebur): 75%; pest or weed control at 31 g/ha ([3]; Xanthium strumarium, post-emergence, 31 g ai/ha, read-out: Plant response rating (scale of 0 to 100), Cocklebur): 80%; pest or weed control at 62 g/ha ([3]; Xanthium strumarium, post-emergence, 62 g ai/ha, read-out: Plant response rating (scale of 0 to 100), Cocklebur): 90%; pest or weed control at 125 g/ha ([3]; Xanthium strumarium, post-emergence, 125 g ai/ha, scale 0 to 100 (0 no effect, 100 complete control), read-out: Cocklebur plant response rating): 100%; Corn plant response rating (crop injury, 0 = no effect, 100 = complete kill) at 16 g/ha (corn (Zea mays); Zea mays, post-emergence, 16 g ai/ha, read-out: Plant response rating (scale of 0 to 100), Corn): 10%; Corn plant response rating (crop injury, 0 = no effect, 100 = complete kill) at 31 g/ha (corn (Zea mays); Zea mays, post-emergence, 31 g ai/ha, read-out: Plant response rating (scale of 0 to 100), Corn): 35%; Corn plant response rating (crop injury, 0 = no effect, 100 = complete kill) at 62 g/ha (corn (Zea mays); Zea mays, post-emergence, 62 g ai/ha, read-out: Plant response rating (scale of 0 to 100), Corn): 35%; Corn plant response rating (crop injury, 0 = no effect, 100 = complete kill) at 125 g/ha (corn (Zea mays); Zea mays, post-emergence, 125 g ai/ha, scale 0 to 100 (0 no effect, 100 complete control), read-out: Corn plant response rating): 60%; pest or weed control at 16 g/ha ([4]; Eriochloa villosa, post-emergence, 16 g ai/ha, read-out: Plant response rating (scale of 0 to 100), Cupgrass, Woolly): 60%; pest or weed control at 31 g/ha ([4]; Eriochloa villosa, post-emergence, 31 g ai/ha, read-out: Plant response rating (scale of 0 to 100), Cupgrass, Woolly): 80%; pest or weed control at 62 g/ha ([4]; Eriochloa villosa, post-emergence, 62 g ai/ha, read-out: Plant response rating (scale of 0 to 100), Cupgrass, Woolly): 90%; pest or weed control at 125 g/ha ([4]; Eriochloa villosa, post-emergence, 125 g ai/ha, scale 0 to 100 (0 no effect, 100 complete control), read-out: Cupgrass, Woolly plant response rating): 90%; pest or weed control at 16 g/ha ([5]; Amaranthus retroflexus, post-emergence, 16 g ai/ha, read-out: Plant response rating (scale of 0 to 100), Pigweed): 95%; pest or weed control at 31 g/ha ([5]; Amaranthus retroflexus, post-emergence, 31 g ai/ha, read-out: Plant response rating (scale of 0 to 100), Pigweed): 100%; pest or weed control at 62 g/ha ([5]; Amaranthus retroflexus, post-emergence, 62 g ai/ha, read-out: Plant response rating (scale of 0 to 100), Pigweed): 100%; pest or weed control at 125 g/ha ([5]; Amaranthus retroflexus, post-emergence, 125 g ai/ha, scale 0 to 100 (0 no effect, 100 complete control), read-out: Pigweed plant response rating): 100%; pest or weed control at 16 g/ha (kochia (Kochia scoparia); Bassia scoparia, post-emergence, 16 g ai/ha, read-out: Plant response rating (scale of 0 to 100), Kochia): 75%; pest or weed control at 31 g/ha (kochia (Kochia scoparia); Bassia scoparia, post-emergence, 31 g ai/ha, read-out: Plant response rating (scale of 0 to 100), Kochia): 90%; pest or weed control at 62 g/ha (kochia (Kochia scoparia); Bassia scoparia, post-emergence, 62 g ai/ha, read-out: Plant response rating (scale of 0 to 100), Kochia): 95%; pest or weed control at 125 g/ha (kochia (Kochia scoparia); Bassia scoparia, post-emergence, 125 g ai/ha, scale 0 to 100 (0 no effect, 100 complete control), read-out: Kochia plant response rating): 100%; pest or weed control at 16 g/ha ([6]; Ambrosia artemisiifolia, post-emergence, 16 g ai/ha, read-out: Plant response rating (scale of 0 to 100), Ragweed): 90%; pest or weed control at 31 g/ha ([6]; Ambrosia artemisiifolia, post-emergence, 31 g ai/ha, read-out: Plant response rating (scale of 0 to 100), Ragweed): 90%; pest or weed control at 62 g/ha ([6]; Ambrosia artemisiifolia, post-emergence, 62 g ai/ha, read-out: Plant response rating (scale of 0 to 100), Ragweed): 95%; pest or weed control at 125 g/ha ([6]; Ambrosia artemisiifolia, post-emergence, 125 g ai/ha, scale 0 to 100 (0 no effect, 100 complete control), read-out: Ragweed plant response rating): 100%; pest or weed control at 16 g/ha ([7]; Cynodon dactylon, post-emergence, 16 g ai/ha, read-out: Plant response rating (scale of 0 to 100), Bermudagrass): 60%; pest or weed control at 31 g/ha ([7]; Cynodon dactylon, post-emergence, 31 g ai/ha, read-out: Plant response rating (scale of 0 to 100), Bermudagrass): 70%; pest or weed control at 62 g/ha ([7]; Cynodon dactylon, post-emergence, 62 g ai/ha, scale 0 to 100 (0 no effect, 100 complete control), read-out: Bermudagrass plant response rating): 75%; pest or weed control at 125 g/ha ([7]; Cynodon dactylon, post-emergence, 125 g ai/ha, scale 0 to 100 (0 no effect, 100 complete control), read-out: Bermudagrass plant response rating): 80%; pest or weed control at 16 g/ha ([8]; Ipomoea, post-emergence, 16 g ai/ha, read-out: Plant response rating (scale of 0 to 100), Morningglory): 60%; pest or weed control at 31 g/ha ([8]; Ipomoea, post-emergence, 31 g ai/ha, read-out: Plant response rating (scale of 0 to 100), Morningglory): 80%; pest or weed control at 62 g/ha ([8]; Ipomoea, post-emergence, 62 g ai/ha, read-out: Plant response rating (scale of 0 to 100), Morningglory): 90%; pest or weed control at 125 g/ha ([8]; Ipomoea, post-emergence, 125 g ai/ha, scale 0 to 100 (0 no effect, 100 complete control), read-out: Morningglory plant response rating): 100%

Question: For `CC(=O)NN=Cc1nc(C2CC2)nc(N)c1Br` [Compound 51], which “Surinam Grass plant response rating” value [1, 9] is on record?
Answer: 0

Question: What about the “Surinam Grass plant response rating” value [1, 10] of the same molecule?
Answer: 0

Question: And the “Plant response rating, Surinam Grass” value ([1]; 250 g ai/ha)?
Answer: 0

Question: What about the “Plant response rating, Surinam Grass” value ([1]; 500 g ai/ha) of the same molecule?
Answer: 0

Question: And the “Johnsongrass plant response rating” value [2, 9]?
Answer: 0

Question: What about the “Plant response rating, Johnsongrass” value ([2]; 250 g ai/ha) of the same molecule?
Answer: 0

Question: And the “Plant response rating, Johnsongrass” value ([2]; 500 g ai/ha)?
Answer: 0

Question: What about the “Cocklebur plant response rating” value [3, 9] of the same molecule?
Answer: 65

Question: What about the “Cocklebur plant response rating” value [3, 10] of the same molecule?
Answer: 65

Question: What about the “Plant response rating, Cocklebur” value ([3]; 250 g ai/ha) of the same molecule?
Answer: 70

Question: What about the “Plant response rating, Cocklebur” value ([3]; 500 g ai/ha) of the same molecule?
Answer: 85

Question: And the “Corn plant response rating” value (corn (Zea mays); [9])?
Answer: 0

Question: And the “Corn plant response rating” value (corn (Zea mays); [10])?
Answer: 0

Question: And the “Plant response rating, Corn” value (corn (Zea mays); 250 g ai/ha)?
Answer: 0

Question: What about the “Plant response rating, Corn” value (corn (Zea mays); 500 g ai/ha) of the same molecule?
Answer: 0

Question: And the “Cupgrass, Woolly plant response rating” value [4, 9]?
Answer: 0

Question: What about the “Cupgrass, Woolly plant response rating” value [4, 10] of the same molecule?
Answer: 0

Question: What about the “Plant response rating, Cupgrass, Woolly” value ([4]; 250 g ai/ha) of the same molecule?
Answer: 0

Question: What about the “Plant response rating, Cupgrass, Woolly” value ([4]; 500 g ai/ha) of the same molecule?
Answer: 0

Question: What about the “Pigweed plant response rating” value [5, 9] of the same molecule?
Answer: 65

Question: What about the “Pigweed plant response rating” value [5, 10] of the same molecule?
Answer: 70

Question: What about the “Plant response rating, Pigweed” value ([5]; 250 g ai/ha) of the same molecule?
Answer: 80

Question: And the “Plant response rating, Pigweed” value ([5]; 500 g ai/ha)?
Answer: 85

Question: What about the “Kochia plant response rating” value (kochia (Kochia scoparia); [9]) of the same molecule?
Answer: 15

Question: And the “Kochia plant response rating” value (kochia (Kochia scoparia); [10])?
Answer: 60

Question: And the “Plant response rating, Kochia” value (kochia (Kochia scoparia); 250 g ai/ha)?
Answer: 85

Question: And the “Plant response rating, Kochia” value (kochia (Kochia scoparia); 500 g ai/ha)?
Answer: 95

Question: What about the “Ragweed plant response rating” value [6, 9] of the same molecule?
Answer: 65

Question: And the “Ragweed plant response rating” value [6, 10]?
Answer: 80

Question: And the “Plant response rating, Ragweed” value ([6]; 250 g ai/ha)?
Answer: 80

Question: What about the “Plant response rating, Ragweed” value ([6]; 500 g ai/ha) of the same molecule?
Answer: 85

Question: And the “Bermudagrass plant response rating” value [7, 9]?
Answer: 0

Question: And the “Bermudagrass plant response rating” value [7, 10]?
Answer: 0

Question: What about the “Plant response rating, Bermudagrass” value ([7]; 250 g ai/ha) of the same molecule?
Answer: 0

Question: And the “Plant response rating, Bermudagrass” value ([7]; 500 g ai/ha)?
Answer: 0

Question: What about the “Morningglory plant response rating” value [8, 9] of the same molecule?
Answer: 80

Question: What about the “Morningglory plant response rating” value [8, 10] of the same molecule?
Answer: 80

Question: And the “Plant response rating, Morningglory” value ([8]; 250 g ai/ha)?
Answer: 85

Question: And the “Plant response rating, Morningglory” value ([8]; 500 g ai/ha)?
Answer: 100

— US8802597B2, “Herbicidal pyrimidines” (E I du Pont de Nemours and Company, priority 2003, dated 2014)
